Tested on: 521955-158-R2-J5-PDC complex spheroids, viability
Assay: Anticancer human tumor 521955-158-R2-J5-PDC patient-derived pancreatic carcinoma cell line growth inhibition [RAS]
Conditions: for IC50: curve of first compound; for viability, T/C: stronger effect = lower value
Excerpt: RAS pathway inhibitors in Combinations in Complex Spheroids
A high-throughput screen of multi-cell type tumor spheroids was designed to identify active combinations of RAS pathway inhibitors and targeted small molecules. Complex spheroids include a stromal component modeled by human endothelial cells (HUVEC) and fibroblasts modeled by human mesenchymal stem cells (MSCs). The concentration ranges selected for each drug and investigational agent were based upon clinically achievable concentrations if the clinical Cmax of the agent was known.
Compounds. The drugs and investigational agents: abemaciclib (NSC768073), cobimetinib (NSC768068), divarasib (GDC6063, NSC841802), docetaxel (NSC628503), GDC-1971 (RLY-1971, NSC841576), gemcitabine (NSC613327), inavolisib (NSC800729), ipatasertib (NSC767898), KB-0742 (NSC834161), MRTX-1133 (NSC836407), osimertinib (NSC779217), RMC-4630 (NSC839698), RMC-6236 (NSC851965), RMC-6291 (NSC852671), Ro-3306 (NSC812927), sapanisertib (NSC764658), SN-38 (NSC673596), staurosporine (NSC755774), SY5609 (NSC837396), and tovorafenib (DAY101, NSC766906), were obtained from the National Cancer Institute (NCI) Developmental Therapeutics Program Chemical Repository. The FDA-approved anticancer drug set is available from the NCI Developmental Therapeutics Program. […] The stock solutions were prepared in dimethyl sulfoxide (DMSO, Sigma-Aldrich, St. Louis, MO, cat. D2650) at 800-fold the tested concentration and stored at -70 degrees C prior to their use. All drugs and investigational agents were tested over a range starting from a high concentration at or near the clinical Cmax and decreasing in half-log increments. If the clinical Cmax for an agent had not been determined, the highest concentration tested was 10 microM.
Cell Culture. All cells were maintained in an incubator at 37 degrees C and 5% CO2 with 95% humidity. The PDC lines were cultured according to standard operating procedures established by the NCI PDMR. All PDCs were thawed and cultured in Matrigel-coated flasks prepared with a working solution of 1X Ham's F-12 nutrient mix, without supplementation (Invitrogen, Waltham, MA, cat. 11765054), 100 U/mL penicillin-streptomycin (Invitrogen, cat. 15140122), and 2.5% Matrigel (Corning Inc., Corning, NY, cat. 354248) for the first three passages. The 362531-283-R-J2-PDC and 782815-120-R-J1-PDC lines were cultured in 6C/Colon 1B media, which includes advanced DMEM/F-12 (Thermo Fisher Scientific, cat. 12634028), 10 mM HEPES (Thermo Fisher Scientific, cat. 15630080), 1X GlutaMAX supplement (Thermo Fisher Scientific, cat. 35050061), 0.1 mg/mL primocin (InvivoGen, San Diego, CA, cat. ant-pm-2), 10% defined fetal bovine serum, heat inactivated (HyClone Laboratories Inc., Logan, UT, cat. SH30070.03HI), 50% L-WRN conditioned media (ATCC, cat. CRL-3276), 1.25 mM N-Acetyl-L-cysteine (Sigma-Aldrich, cat. A9165), 10 mM nicotinamide (Sigma-Aldrich, cat. N0636), 1X B-27 supplement (Thermo Fisher Scientific, cat. 17504044), 1X N-2 supplement (Thermo Fisher Scientific, cat. 17502048), 50 ng/mL human EGF (Thermo Fisher Scientific, cat. PHG0311), and 10 microM Y-27632 dihydrochloride (Tocris Bioscience, cat. 1254). The K12877-001-R-J1-PDC line was cultured in 6I media, which includes all 6C/Colon 1B media plus 10 ng/mL human FGF-10 (PeproTech, cat. 100-26), 1 ng/mL human FGF-2 (PeproTech, cat. 100-18B), 1 µM prostaglandin E2 (Tocris Bioscience, cat. 2296), […] hydrocortisone (Sigma-Aldrich, cat. H4001), and […] bovine insulin (Sigma-Aldrich, cat. I6634). The K86415-001-R-J1-PDC line was cultured in 6D media, which includes all 6C/Colon 1B media components minus the L-WRN conditioned media. The 485176-168-R4-J1-PDC was cultured in PANC media, which includes all 6C/Colon 1B media plus 100 ng/mL human FGF-10 (PeproTech, cat. 100-26), 500 nM SB-431542 (Selleckchem, cat. S1067), and 10 nM gastrin (Tocris Bioscience, cat. 3006). […]

[1] = second compound 0.0316 µM, first compound 0.0316 µM
[2] = second compound 0.0316 µM, first compound 0.1 µM
[3] = second compound 0.0316 µM, first compound 0.316 µM
[4] = second compound 0.0316 µM, first compound 1 µM
[5] = second compound 0.0316 µM, first compound 3.16 µM
[6] = second compound 0.0316 µM, first compound 10 µM
[7] = second compound 0.1 µM, first compound 0.0316 µM
[8] = second compound 0.1 µM, first compound 0.1 µM
[9] = second compound 0.1 µM, first compound 0.316 µM
[10] = second compound 0.1 µM, first compound 1 µM
[11] = second compound 0.1 µM, first compound 3.16 µM
[12] = second compound 0.1 µM, first compound 10 µM
[13] = second compound 0.316 µM, first compound 0.0316 µM
[14] = second compound 0.316 µM, first compound 0.1 µM
[15] = second compound 0.316 µM, first compound 0.316 µM
[16] = second compound 0.316 µM, first compound 1 µM
[17] = second compound 0.316 µM, first compound 3.16 µM
[18] = second compound 0.316 µM, first compound 10 µM
[19] = second compound 1 µM, first compound 0.0316 µM
[20] = second compound 1 µM, first compound 0.1 µM
[21] = second compound 1 µM, first compound 0.316 µM
[22] = second compound 1 µM, first compound 1 µM
[23] = second compound 1 µM, first compound 3.16 µM
[24] = second compound 1 µM, first compound 10 µM
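Also: compound exposure lasted seven days before the viability read.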
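For viability, T/C in this document: spheroids also contain HUVEC endothelial cells and mesenchymal stem cells as stroma.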

SMILES: CC(=O)OC12COC1CC(O)C1(C)C(=O)C(O)C3=C(C)C(OC(=O)C(O)C(NC(=O)OC(C)(C)C)c4ccccc4)CC(O)(C(OC(=O)c4ccccc4)C21)C3(C)C (centres undefined) + C=CC(=O)N1CCN(c2nc(OCC3CCCN3C)nc3c(F)c(-c4nc(N)cc(C)c4C(F)(F)F)c(Cl)cc23)C(C)C1
- IC50 (second compound 0.00316 µM): < 31.6 nM
- IC50 (second compound 0.01 µM): < 31.6 nM
- IC50 (second compound 0.0316 µM): < 31.6 nM
- IC50 (second compound 0.1 µM): < 31.6 nM
- IC50 (second compound 0.316 µM): < 31.6 nM
- IC50 (second compound 1 µM): < 31.6 nM
- viability, T/C (second compound 0.00316 µM, first compound 0.0316 µM): 37.3%
- viability, T/C (second compound 0.00316 µM, first compound 0.1 µM): 34.1%
- viability, T/C (second compound 0.00316 µM, first compound 0.316 µM): 24.9%
- viability, T/C (second compound 0.00316 µM, first compound 1 µM): 29.8%
- viability, T/C (second compound 0.00316 µM, first compound 3.16 µM): 40.8%
- viability, T/C (second compound 0.00316 µM, first compound 10 µM): 64.4%
- viability, T/C (second compound 0.01 µM, first compound 0.0316 µM): 38.5%
- viability, T/C (second compound 0.01 µM, first compound 0.1 µM): 34.3%
- viability, T/C (second compound 0.01 µM, first compound 0.316 µM): 21.5%
- viability, T/C (second compound 0.01 µM, first compound 1 µM): 30.6%
- viability, T/C (second compound 0.01 µM, first compound 3.16 µM): 41.4%
- viability, T/C (second compound 0.01 µM, first compound 10 µM): 52.6%
- viability, T/C [1]: 39.7%
- viability, T/C [2]: 40.6%
- viability, T/C [3]: 28.2%
- viability, T/C [4]: 29.7%
- viability, T/C [5]: 44.9%
- viability, T/C [6]: 44.9%
- viability, T/C [7]: 34.3%
- viability, T/C [8]: 31.5%
- viability, T/C [9]: 33.1%
- viability, T/C [10]: 25.6%
- viability, T/C [11]: 35.8%
- viability, T/C [12]: 59.3%
- viability, T/C [13]: 38.4%
- viability, T/C [14]: 33.9%
- viability, T/C [15]: 21.7%
- viability, T/C [16]: 34.6%
- viability, T/C [17]: 46.1%
- viability, T/C [18]: 51.9%
- viability, T/C [19]: 31.8%
- viability, T/C [20]: 32.3%
- viability, T/C [21]: 19.1%
- viability, T/C [22]: 22%
- viability, T/C [23]: 46.3%
- viability, T/C [24]: 55.5%

SMILES: C[C@@H](NC(=O)c1ncnc(N)c1Cl)c1ncc(C(=O)Nc2cc(C(F)(F)F)c(Cl)cn2)s1 + C#Cc1c(F)ccc2cc(O)cc(-c3ncc4c(N5CC6CCC(C5)N6)nc(OCC56CCCN5CC(F)C6)nc4c3F)c12
- IC50 (second compound 0.0316 µM): > 10000 nM
- IC50 (second compound 0.1 µM): 531 nM
- IC50 (second compound 0.316 µM): 3290 nM
- IC50 (second compound 1 µM): 493 nM
- IC50 (second compound 3.16 µM): < 31.6 nM
- IC50 (second compound 10 µM): < 31.6 nM
- viability, T/C [1]: 57.8%
- viability, T/C [2]: 58.3%
- viability, T/C [3]: 59.8%
- viability, T/C [4]: 54.3%
- viability, T/C [5]: 57.4%
- viability, T/C [6]: 46%
- viability, T/C [7]: 65.5%
- viability, T/C [8]: 58.3%
- viability, T/C [9]: 46.9%
- viability, T/C [10]: 47.3%
- viability, T/C [11]: 57.2%
- viability, T/C [12]: 42.3%
- viability, T/C [13]: 62%
- viability, T/C [14]: 55.7%
- viability, T/C [15]: 58.4%
- viability, T/C [16]: 53.2%
- viability, T/C [17]: 52.4%
- viability, T/C [18]: 37.9%
- viability, T/C [19]: 61.2%
- viability, T/C [20]: 48.4%
- viability, T/C [21]: 47.5%
- viability, T/C [22]: 51%
- viability, T/C [23]: 45.3%
- viability, T/C [24]: 33.5%
- viability, T/C (second compound 3.16 µM, first compound 0.0316 µM): 51.3%
- viability, T/C (second compound 3.16 µM, first compound 0.1 µM): 49.1%
- viability, T/C (second compound 3.16 µM, first compound 0.316 µM): 36.6%
- viability, T/C (second compound 3.16 µM, first compound 1 µM): 54.4%
- viability, T/C (second compound 3.16 µM, first compound 3.16 µM): 43.5%
- viability, T/C (second compound 3.16 µM, first compound 10 µM): 32.7%
- viability, T/C (second compound 10 µM, first compound 0.0316 µM): 41.1%
- viability, T/C (second compound 10 µM, first compound 0.1 µM): 38.2%
- viability, T/C (second compound 10 µM, first compound 0.316 µM): 37.3%
- viability, T/C (second compound 10 µM, first compound 1 µM): 37.5%
- viability, T/C (second compound 10 µM, first compound 3.16 µM): 35.1%
- viability, T/C (second compound 10 µM, first compound 10 µM): 22.8%
